Measured values taken from the CheMixHub viscosity set.

Assay: xn = mol fraction of the nth substance listed

COCCOCCOCCO + CCCO
viscosity [mPa·s], 101 kPa
Settings | 298.15 K | 308.15 K | 318.15 K
x1 = 0.0134 | 1.952 | 1.526 | 1.246
x1 = 0.0366 | 1.983 | 1.555 | 1.273
x1 = 0.0639 | 2.034 | 1.604 | 1.32
x1 = 0.1165 | 2.159 | 1.692 | 1.4
x1 = 0.1568 | 2.273 | 1.786 | 1.484
x1 = 0.2037 | 2.434 | 1.894 | 1.576
x1 = 0.2664 | 2.652 | 2.064 | 1.715
x1 = 0.3205 | 2.847 | 2.213 | 1.851
x1 = 0.3498 | 3.007 | 2.328 | 1.927
x1 = 0.3669 | 3.042 | 2.349 | 1.973
x1 = 0.4076 | 3.264 | 2.495 | 2.085
x1 = 0.4623 | 3.514 | 2.678 | 2.228
x1 = 0.5601 | 4 | 3.021 | 2.51
x1 = 0.6022 | 4.21 | 3.158 | 2.624
x1 = 0.6441 | 4.433 | 3.312 | 2.741
x1 = 0.7071 | 4.778 | 3.545 | 2.921
x1 = 0.7635 | 5.059 | 3.746 | 3.074
x1 = 0.8228 | 5.311 | 3.929 | 3.238
x1 = 0.8494 | 5.452 | 4.008 | 3.312
x1 = 0.9137 | 5.74 | 4.23 | 3.489
x1 = 0.9358 | 5.875 | 4.299 | 3.55
x1 = 0.961 | 6.08 | 4.384 | 3.616

COCCOCCOCCOC + CCCO
viscosity [mPa·s]
Settings | 298.15 K | 308.15 K
101 kPa, x1 = 0.0386 | 1.777 | 1.406
101 kPa, x1 = 0.0615 | 1.714 | 1.363
101 kPa, x1 = 0.076 | 1.697 | 1.34
101 kPa, x1 = 0.1064 | 1.636 | 1.318
101 kPa, x1 = 0.1595 | 1.584 | 1.28
101 kPa, x1 = 0.2157 | 1.577 | 1.288
101 kPa, x1 = 0.2499 | 1.572 | 1.274
101 kPa, x1 = 0.2631 | 1.57 | 1.275
101 kPa, x1 = 0.3355 | 1.594 | 1.288
101 kPa, x1 = 0.422 | 1.607 | 1.315
101 kPa, x1 = 0.4701 | 1.635 | 1.335
101 kPa, x1 = 0.5148 | 1.654 | 1.363
101 kPa, x1 = 0.5848 | 1.693 | 1.385
101 kPa, x1 = 0.6662 | 1.743 | 1.442
101 kPa, x1 = 0.7126 | 1.772 | 1.456
101 kPa, x1 = 0.7778 | 1.826 | 1.483
101 kPa, x1 = 0.8098 | 1.853 | 1.508
101 kPa, x1 = 0.8789 | 1.89 | 1.536
101 kPa, x1 = 0.9504 | 1.942 | 1.58
101 kPa, x1 = 0.9719 | 1.956 | 1.592
101.33 kPa, x1 = 0.0081 | 1.918 | –
101.33 kPa, x1 = 0.0165 | 1.884 | –
101.33 kPa, x1 = 0.0245 | 1.856 | –
101.33 kPa, x1 = 0.0336 | 1.824 | –
101.33 kPa, x1 = 0.048 | 1.781 | –
101.33 kPa, x1 = 0.0692 | 1.725 | –
101.33 kPa, x1 = 0.0946 | 1.67 | –
101.33 kPa, x1 = 0.1327 | 1.614 | –
101.33 kPa, x1 = 0.1747 | 1.573 | –
101.33 kPa, x1 = 0.2259 | 1.549 | –
101.33 kPa, x1 = 0.2757 | 1.544 | –
101.33 kPa, x1 = 0.3226 | 1.548 | –
101.33 kPa, x1 = 0.3691 | 1.563 | –
101.33 kPa, x1 = 0.4157 | 1.578 | –
101.33 kPa, x1 = 0.4606 | 1.598 | –
101.33 kPa, x1 = 0.5153 | 1.625 | –
101.33 kPa, x1 = 0.5714 | 1.653 | –
101.33 kPa, x1 = 0.6283 | 1.684 | –
101.33 kPa, x1 = 0.6732 | 1.713 | –
101.33 kPa, x1 = 0.7227 | 1.743 | –
101.33 kPa, x1 = 0.7726 | 1.778 | –
101.33 kPa, x1 = 0.8162 | 1.812 | –
101.33 kPa, x1 = 0.8625 | 1.848 | –
101.33 kPa, x1 = 0.9112 | 1.888 | –
101.33 kPa, x1 = 0.9347 | 1.904 | –
101.33 kPa, x1 = 0.9568 | 1.919 | –
101.33 kPa, x1 = 0.9775 | 1.935 | –

C[NH+](CCO)CCO.O=C[O-] + CCCO
viscosity [mPa·s], 101 kPa
Settings | 293.15 K | 303.15 K | 313.15 K | 323.15 K
x1 = 0.0561 | 29.65 | 17.05 | 8.082 | 5.559
x1 = 0.1033 | 51.95 | 25.07 | 13.55 | 9.307
x1 = 0.1976 | 99.81 | 47.76 | 25.74 | 17.6
x1 = 0.3071 | 159.4 | 78.44 | 41.48 | 28.28
x1 = 0.4049 | 216.8 | 106.9 | 57.05 | 38.83
x1 = 0.5231 | 293.9 | 143.5 | 78.48 | 53.2
x1 = 0.6246 | 369.5 | 179.8 | 99.71 | 67.21
x1 = 0.7259 | 455.1 | 222.6 | 123.6 | 82.66
x1 = 0.8079 | 531.2 | 261.8 | 144.3 | 95.86
x1 = 0.9055 | 627 | 310.4 | 169 | 111.4
x1 = 0.9558 | 671.4 | 331.9 | 180.4 | 118.7

Nc1ccccc1 + CCCO
viscosity [mPa·s]
Settings | 294.15 K | 298.15 K | 303.15 K | 308.15 K | 313.15 K
100 kPa, x1 = 0.091 | – | – | 1.673 | – | 1.319
100 kPa, x1 = 0.1839 | – | – | 1.635 | – | 1.275
100 kPa, x1 = 0.2978 | – | – | 1.609 | – | 1.255
100 kPa, x1 = 0.3949 | – | – | 1.626 | – | 1.271
100 kPa, x1 = 0.4741 | – | – | 1.673 | – | 1.31
100 kPa, x1 = 0.5952 | – | – | 1.819 | – | 1.399
100 kPa, x1 = 0.7405 | – | – | 2.129 | – | 1.602
100 kPa, x1 = 0.8903 | – | – | 2.582 | – | 1.958
101.33 kPa, x1 = 0.1006 | 2.097 | 1.902 | 1.685 | 1.501 | 1.341
101.33 kPa, x1 = 0.1991 | 2.123 | 1.93 | 1.703 | 1.516 | 1.357
101.33 kPa, x1 = 0.2994 | 2.219 | 1.993 | 1.753 | 1.56 | 1.394
101.33 kPa, x1 = 0.3992 | 2.336 | 2.098 | 1.846 | 1.633 | 1.446
101.33 kPa, x1 = 0.5007 | 2.499 | 2.234 | 1.952 | 1.727 | 1.526
101.33 kPa, x1 = 0.6011 | 2.689 | 2.398 | 2.092 | 1.842 | 1.638
101.33 kPa, x1 = 0.7011 | 2.963 | 2.641 | 2.304 | 2 | 1.791
101.33 kPa, x1 = 0.8002 | 3.289 | 2.925 | 2.575 | 2.241 | 1.981
101.33 kPa, x1 = 0.8983 | 3.671 | 3.245 | 2.81 | 2.455 | 2.16

COCCOCCOCCOC + CCCOC(C)=O
viscosity [mPa·s], 101.3 kPa
Settings | 298.15 K | 308.15 K | 318.15 K
x1 = 0.005 | 0.558 | 0.492 | 0.442
x1 = 0.0351 | 0.589 | 0.517 | 0.465
x1 = 0.0513 | 0.607 | 0.532 | 0.476
x1 = 0.0859 | 0.643 | 0.562 | 0.503
x1 = 0.1416 | 0.709 | 0.613 | 0.544
x1 = 0.1846 | 0.757 | 0.652 | 0.577
x1 = 0.2654 | 0.857 | 0.734 | 0.647
x1 = 0.3185 | 0.922 | 0.785 | 0.683
x1 = 0.3767 | 1.009 | 0.848 | 0.733
x1 = 0.426 | 1.078 | 0.902 | 0.784
x1 = 0.5278 | 1.224 | 1.019 | 0.862
x1 = 0.5868 | 1.313 | 1.086 | 0.921
x1 = 0.627 | 1.388 | 1.141 | –
x1 = 0.6327 | – | – | 0.964
x1 = 0.69 | 1.486 | 1.22 | 1.025
x1 = 0.7402 | 1.567 | 1.282 | 1.077
x1 = 0.8031 | 1.67 | 1.365 | 1.137
x1 = 0.8451 | 1.744 | 1.427 | 1.177
x1 = 0.8711 | 1.784 | 1.472 | 1.207
x1 = 0.9467 | 1.9 | 1.542 | 1.276
x1 = 0.9582 | 1.91 | 1.552 | 1.285
x1 = 0.979 | 1.939 | 1.513 | 1.302

C[NH+](CCO)CCO.O=C[O-] + CCO
viscosity [mPa·s], 101 kPa
Settings | 293.15 K | 303.15 K | 313.15 K | 323.15 K
x1 = 0.0643 | 32.41 | 17.44 | 8.445 | 5.799
x1 = 0.1074 | 52.86 | 25.09 | 13.49 | 9.254
x1 = 0.2133 | 106.7 | 51.03 | 27.25 | 18.63
x1 = 0.3117 | 159.3 | 78.2 | 41.19 | 28.12
x1 = 0.417 | 218.9 | 107.6 | 57.4 | 39.18
x1 = 0.5197 | 281.6 | 137.2 | 74.93 | 51.06
x1 = 0.6178 | 348.2 | 168.6 | 93.84 | 63.73
x1 = 0.7224 | 434.6 | 211.7 | 118.3 | 79.69
x1 = 0.8275 | 534.4 | 263.6 | 145.7 | 97.16
x1 = 0.9161 | 630.3 | 312.3 | 170 | 112.2
x1 = 0.95 | 665 | 328.9 | 178.8 | 117.6

Oc1ccc2ccccc2c1 + CCO
viscosity [mPa·s], 101 kPa
Settings | x1 = 0.03 | x1 = 0.06 | x1 = 0.09 | x1 = 0.12 | x1 = 0.15
293.15 K | 1.428 | 1.684 | 1.969 | 2.28 | 2.641
303.15 K | 1.162 | 1.351 | 1.588 | 1.836 | 2.093
313.15 K | 0.975 | 1.125 | 1.305 | 1.487 | 1.669
323.15 K | 0.801 | 0.92 | 1.063 | 1.217 | 1.374
